Active and inactive are the calls of the source.
Key:
[1] = target: fMet-Leu-Phe receptor (Homo sapiens, UniProt P21462); assay: formyl peptide receptor binders – dose response (AID 519); type: functional
[2] = target: Protein Tat (Human immunodeficiency virus type 1 group M subtype B (isolate HXB2)(HIV-1), UniProt P04608); type: functional;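 also: tat binding to TAR RNA read out by fluorescence polarization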
[3] = potency of ADAM10 substrate cleavage blockers – biochemical, QFRET, dose response (AID 743254);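 also: ADAM10 enzyme with the DM2 quenched FRET peptide as substrate; EDANS fluorescence gain as the protease cuts the substrate; inhibitor potency against ADAM10 proteolytic activity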
[4] = target: T1, Streptokinase A (Streptococcus pyogenes serotype M1, UniProt P10520); assay: viability-normalized secreted streptokinase activity reduction – plasminogen activation absorbance, OD405, dose response (AID 1914); type: functional, Streptococcus pyogenes M1 GAS;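 also: secreted streptokinase activity via plasminogen activation per viability signal from cell pellet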
T1 sequence (P10520 whole entry): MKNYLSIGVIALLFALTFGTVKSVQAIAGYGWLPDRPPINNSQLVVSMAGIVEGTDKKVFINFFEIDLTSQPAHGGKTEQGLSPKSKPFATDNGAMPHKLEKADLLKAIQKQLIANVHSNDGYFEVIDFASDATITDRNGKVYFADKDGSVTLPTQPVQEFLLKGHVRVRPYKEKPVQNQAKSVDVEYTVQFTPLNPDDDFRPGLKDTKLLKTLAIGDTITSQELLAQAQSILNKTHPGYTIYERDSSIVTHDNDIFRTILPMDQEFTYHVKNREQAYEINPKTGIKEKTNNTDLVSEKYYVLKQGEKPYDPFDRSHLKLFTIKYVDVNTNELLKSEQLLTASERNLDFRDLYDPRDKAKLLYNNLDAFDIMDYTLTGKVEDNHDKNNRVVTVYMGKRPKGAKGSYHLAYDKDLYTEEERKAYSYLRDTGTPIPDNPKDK

[5] = target: T2, Fatty acid synthase (Homo sapiens, UniProt P49327); assay: inhibition of human FAS-TE enzyme activity – biochemical, endpoint fluorescence intensity, uHTS hits, dose response (AID 624327); type: functional;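 also: fluorescence from hydrolysis of an O-methyl fluorescein acyl ester substrate by the enzyme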
[6] = test system: Streptococcus sp. 'group A'; assay: Streptococcus pyogenes SK(-)GAS viability under kanamycin – luminescence, BacTiterGlo, confirmation, counter-screen for streptokinase expression inhibitor project, dose response (AID 1900); type: functional, organism-based
[7] = target: T2, Fatty acid synthase; assay: inhibition of human FAS-TE enzyme activity – biochemical, kinetic fluorescence intensity, dose response (AID 624326); type: functional;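 also: rate of fluorescence rise from hydrolysis of a fluorogenic O-methyl fluorescein ester substrate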
[8] = test system: Streptococcus; assay: GAS UMAA2166 growth inhibition – luminescence, BacTiterGlo, counter-screen for streptokinase expression inhibitor project, dose response (AID 1915); type: functional, organism-based;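 also: potency for reduction of bacterial viability or growth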
[9] = target: Disintegrin and metalloproteinase domain-containing protein 17 (Homo sapiens, UniProt P78536); assay: inhibition of ADAM17 substrate cleavage – biochemical, quenched FRET substrate, counter-screen for ADAM10 exosite inhibitor project, dose response (AID 743253)
[10] = target: Paired box protein Pax-8 (Homo sapiens, UniProt Q06710); assay: PAX8 transcriptional activity inhibition in RMG-I – RMG-I cells, luciferase, cherry-pick, dose response (AID 687027); type: functional, cell-based;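 also: luciferase reporter driven by Pax8 target thyroperoxidase promoter measured by SteadyGlo luminescence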
[11] = general mammalian cell viability loss – activator set, cherry-pick, cytotoxicity control for miR-122 modulator project, dose response (AID 720690); type: functional, cell-based;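 also: HEK293T human cells scored for general mammalian cytotoxicity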
[12] = OVCAR-3 cell viability loss – plate reader, dry powder samples, PAX8 inhibitor project, dose response (AID 743044); type: functional, cell-based
[13] = general mammalian cell viability loss – inhibitor set, cherry-pick, set 2, cytotoxicity control for miR-122 modulator project, dose response (AID 720697); type: functional, cell-based
[14] = activation of miR-122 Renilla sensor silencing – cell-based, Huh7 psiCHECK-miR122, Renilla luciferase, cherry-picked, dose response (AID 651956); type: functional;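 also: huh7 hepatoma cells stably carrying a psiCHECK-2 miR-122 sensor plasmid; renilla luciferase signal reporting endogenous miR-122 activity after 48 h compound exposure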
[15] = blockers of HIV-1 ZM109 envelope-driven cell-cell fusion – HeLa effector, CEM target cells, luciferase, cherry-pick, dose response (AID 652058); type: functional, cell-based;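 also: luciferase signal from HIV-1 Env mediated cell-cell fusion of effector and target cells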
[16] = HIV-1 AD8 envelope cell-cell fusion blockers – cherry-pick, dose response (AID 652062); type: functional, cell-based;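 also: luciferase signal from cell-cell fusion driven by HIV-1 clade B AD8 Env; potency is for inhibitors of fusion seen as a drop in luminescence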
[17] = target: T3, Galanin receptor type 3 (Homo sapiens, UniProt O60755); assay: Fluorescence-based cell-based primary high throughput dose response assay to identify antagonists of the Galanin Receptor 3 (GalR3).; type: functional
T3 sequence (O60755 whole entry): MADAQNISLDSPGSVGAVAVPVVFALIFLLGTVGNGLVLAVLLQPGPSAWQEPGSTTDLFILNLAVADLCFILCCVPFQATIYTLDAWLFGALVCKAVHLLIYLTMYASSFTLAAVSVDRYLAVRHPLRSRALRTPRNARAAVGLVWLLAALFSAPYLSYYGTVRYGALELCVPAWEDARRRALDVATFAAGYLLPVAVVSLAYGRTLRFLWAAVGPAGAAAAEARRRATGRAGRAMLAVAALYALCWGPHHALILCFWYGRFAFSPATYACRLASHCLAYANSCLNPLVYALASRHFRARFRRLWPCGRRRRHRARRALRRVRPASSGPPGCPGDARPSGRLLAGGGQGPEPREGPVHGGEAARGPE

[18] = target: COUP transcription factor 2 (Homo sapiens, UniProt P24468); assay: Luminescence-based cell-based high throughput dose response assay to identify inhibitors of COUP-TFII (NR2F2).; type: functional;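 also: HEK293 cells transiently cotransfected with COUP-TFII expression vector and reporter; luciferase reporter luminescence driven by COUP-TFII from the pX2-168 reporter plasmid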
[19] = off-target signal loss in HeLa-CEM21 co-culture – HeLa F-luc CTL cells, cherry-picked, counter-screen for HIV-1 Env fusion inhibitor project, dose response (AID 652040); type: functional, cell-based;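 also: potency for signal decrease marking cytotoxic or nonspecific inhibition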
[20] = cells; type: functional, cell-based; conditions: HEK-CNG
[21] = growth inhibition of PfATP4-mutant resistant parasites – NITD609-resistant line, SYBR Green, dry powder, dose response (AID 1159571); type: functional, cell-based;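 also: parasites synchronized at ring stage by sorbitol before testing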
[22] = blockers of bursicon-stimulated LGR2 cAMP reporter – cell-based, HEK293, CRE-luciferase reporter, cherry pick, set 2, dose response (AID 743343); type: functional;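 also: transfected cells were stimulated with diluted bursicon conditioned medium after compound addition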
[23] = A2780 cell killing – plate reader, dry powder samples, cytotoxicity control, dose response (AID 743046); type: functional, cell-based
[24] = toxicity toward HepG2 liver cells – cell-based, plate reader, cherry-pick, antagonist series, cytotoxicity control, dose response (AID 743416); type: functional
[25] = A549 cell cytotoxicity, dose response, cytotoxicity control, plate reader, cherry-pick, antagonist series (AID 743412); type: functional, cell-based
[26] = IGROV1 cell killing – plate reader, dry powder samples, PAX8 inhibitor project, dose response (AID 743043); type: functional, cell-based; conditions: IGROV-1
[27] = toxicity to human HepG2 hepatoma cells – cell-based, plate reader, dry powder samples, cytotoxicity control, dose response (AID 1159569); type: functional;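 also: inhibitor potency with signal falling toward the positive control level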
[28] = toxicity toward immortalized ovarian surface epithelium – cell-based, plate reader, dry powder samples, cytotoxicity control for PAX8 inhibitor project, dose response (AID 743045); type: functional
[29] = OVCAR8 cell viability loss – plate reader, dry powder samples, PAX8 project, dose response (AID 743197); type: functional, cell-based; conditions: OVCAR-8
[30] = blockade of melanocortin 4 receptor signaling – cell-based, plate reader, cherry pick, counter-screen for LGR2 antagonist project, dose response (AID 743444); type: functional;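 also: transfected HEK 293 cells stimulated with alpha-MSH peptide; potency of inhibitors of the alpha-MSH evoked signal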
[31] = Dd2 malaria parasite growth inhibition potency – SYBR Green, dry powder samples, dose response (AID 1159566); type: functional, cell-based;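 also: potency for growth inhibition with lower SYBR green DNA signal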
[32] = P. falciparum Dd2 growth inhibitors, dose response, SYBR Green, cherry-picked samples (AID 1159567); type: functional, cell-based
[33] = viability loss in HEK293 cells – cell-based, plate reader, cherry-picked samples, cytotoxicity control, dose response (AID 743446); type: functional
[34] = growth inhibition of yeast DHODH-expressing 3D7 parasites – SYBR Green, dry powder samples, dose response (AID 1159570); type: functional, cell-based;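 also: parasite growth measured after 72 hours of compound exposure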
[35] = toxicity to human hepatoma HepG2 cells – cell-based, cherry-picked samples, cytotoxicity control, dose response (AID 1159577); type: functional

T2 sequence (P49327 whole entry): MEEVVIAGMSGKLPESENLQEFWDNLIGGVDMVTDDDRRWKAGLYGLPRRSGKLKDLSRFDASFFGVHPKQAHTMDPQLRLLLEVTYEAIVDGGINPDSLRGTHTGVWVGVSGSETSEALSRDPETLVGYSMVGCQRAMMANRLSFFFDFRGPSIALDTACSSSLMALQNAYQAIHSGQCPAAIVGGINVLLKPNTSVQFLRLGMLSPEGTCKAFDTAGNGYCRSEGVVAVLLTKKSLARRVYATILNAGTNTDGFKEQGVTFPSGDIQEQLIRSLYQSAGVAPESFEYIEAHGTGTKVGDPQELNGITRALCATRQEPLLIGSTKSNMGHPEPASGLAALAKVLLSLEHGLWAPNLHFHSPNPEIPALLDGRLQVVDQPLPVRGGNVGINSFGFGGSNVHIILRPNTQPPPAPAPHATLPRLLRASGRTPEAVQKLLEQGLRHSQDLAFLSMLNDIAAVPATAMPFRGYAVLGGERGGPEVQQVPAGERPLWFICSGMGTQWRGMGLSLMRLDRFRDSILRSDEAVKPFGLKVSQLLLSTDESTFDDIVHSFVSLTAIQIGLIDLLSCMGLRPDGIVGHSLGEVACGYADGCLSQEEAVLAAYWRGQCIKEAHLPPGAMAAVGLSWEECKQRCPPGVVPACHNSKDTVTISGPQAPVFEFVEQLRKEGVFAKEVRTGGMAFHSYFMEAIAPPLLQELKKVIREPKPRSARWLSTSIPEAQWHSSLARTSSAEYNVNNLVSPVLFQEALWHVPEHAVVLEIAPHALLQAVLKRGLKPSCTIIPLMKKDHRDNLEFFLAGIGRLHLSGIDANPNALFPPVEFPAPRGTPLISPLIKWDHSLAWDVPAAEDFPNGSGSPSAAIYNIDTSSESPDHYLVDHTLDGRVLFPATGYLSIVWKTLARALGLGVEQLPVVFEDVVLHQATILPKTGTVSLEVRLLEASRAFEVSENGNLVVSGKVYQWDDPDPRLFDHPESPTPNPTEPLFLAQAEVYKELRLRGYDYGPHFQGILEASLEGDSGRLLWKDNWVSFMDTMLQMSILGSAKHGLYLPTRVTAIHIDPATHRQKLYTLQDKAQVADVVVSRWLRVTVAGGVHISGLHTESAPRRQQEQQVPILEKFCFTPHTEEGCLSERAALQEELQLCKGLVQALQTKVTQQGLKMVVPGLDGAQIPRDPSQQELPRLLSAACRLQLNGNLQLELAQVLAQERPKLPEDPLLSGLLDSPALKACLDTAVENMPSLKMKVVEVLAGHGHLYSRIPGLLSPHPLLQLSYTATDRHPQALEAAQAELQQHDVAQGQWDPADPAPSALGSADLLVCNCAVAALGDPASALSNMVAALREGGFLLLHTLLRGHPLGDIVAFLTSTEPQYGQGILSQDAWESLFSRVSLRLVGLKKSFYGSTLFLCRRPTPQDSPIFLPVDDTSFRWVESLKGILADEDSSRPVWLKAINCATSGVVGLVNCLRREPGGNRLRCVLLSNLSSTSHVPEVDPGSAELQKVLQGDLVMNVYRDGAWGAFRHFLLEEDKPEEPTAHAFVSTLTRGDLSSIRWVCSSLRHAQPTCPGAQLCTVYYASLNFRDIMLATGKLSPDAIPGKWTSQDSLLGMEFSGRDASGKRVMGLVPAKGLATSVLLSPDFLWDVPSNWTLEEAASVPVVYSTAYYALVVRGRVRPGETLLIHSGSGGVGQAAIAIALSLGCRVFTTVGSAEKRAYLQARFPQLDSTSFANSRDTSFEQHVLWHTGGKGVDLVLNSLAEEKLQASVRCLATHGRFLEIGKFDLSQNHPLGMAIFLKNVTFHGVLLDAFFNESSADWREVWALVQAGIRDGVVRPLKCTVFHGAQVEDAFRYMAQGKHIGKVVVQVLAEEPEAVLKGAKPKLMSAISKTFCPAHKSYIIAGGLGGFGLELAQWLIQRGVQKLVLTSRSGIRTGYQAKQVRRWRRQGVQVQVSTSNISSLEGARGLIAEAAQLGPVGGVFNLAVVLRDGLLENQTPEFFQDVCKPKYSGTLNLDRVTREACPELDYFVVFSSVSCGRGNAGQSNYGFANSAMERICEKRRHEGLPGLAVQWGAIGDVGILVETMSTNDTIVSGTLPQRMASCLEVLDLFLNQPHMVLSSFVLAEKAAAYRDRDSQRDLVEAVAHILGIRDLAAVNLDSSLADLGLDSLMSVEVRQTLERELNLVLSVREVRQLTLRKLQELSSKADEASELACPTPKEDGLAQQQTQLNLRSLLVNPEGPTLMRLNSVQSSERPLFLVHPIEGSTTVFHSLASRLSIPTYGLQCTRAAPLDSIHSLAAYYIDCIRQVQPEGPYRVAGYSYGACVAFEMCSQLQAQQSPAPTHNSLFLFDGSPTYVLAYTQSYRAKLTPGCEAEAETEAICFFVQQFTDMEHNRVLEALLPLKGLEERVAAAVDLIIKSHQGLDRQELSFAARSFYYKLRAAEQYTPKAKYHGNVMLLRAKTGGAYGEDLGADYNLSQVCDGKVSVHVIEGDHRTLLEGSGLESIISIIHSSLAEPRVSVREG
Chain of Paired box protein Pax-8 (Q06710 whole entry): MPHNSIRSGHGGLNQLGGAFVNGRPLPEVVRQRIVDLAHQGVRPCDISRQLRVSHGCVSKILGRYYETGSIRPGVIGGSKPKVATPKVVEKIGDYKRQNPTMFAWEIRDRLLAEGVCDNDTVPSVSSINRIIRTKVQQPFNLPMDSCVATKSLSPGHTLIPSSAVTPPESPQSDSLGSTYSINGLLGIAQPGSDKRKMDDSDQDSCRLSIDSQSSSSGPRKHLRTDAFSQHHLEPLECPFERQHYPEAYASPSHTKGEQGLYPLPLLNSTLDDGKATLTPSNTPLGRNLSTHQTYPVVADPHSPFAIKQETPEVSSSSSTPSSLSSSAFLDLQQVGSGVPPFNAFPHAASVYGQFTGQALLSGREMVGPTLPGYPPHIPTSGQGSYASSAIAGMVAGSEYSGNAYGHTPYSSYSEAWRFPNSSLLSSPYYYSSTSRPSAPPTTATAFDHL
Chain of fMet-Leu-Phe receptor (P21462 whole entry): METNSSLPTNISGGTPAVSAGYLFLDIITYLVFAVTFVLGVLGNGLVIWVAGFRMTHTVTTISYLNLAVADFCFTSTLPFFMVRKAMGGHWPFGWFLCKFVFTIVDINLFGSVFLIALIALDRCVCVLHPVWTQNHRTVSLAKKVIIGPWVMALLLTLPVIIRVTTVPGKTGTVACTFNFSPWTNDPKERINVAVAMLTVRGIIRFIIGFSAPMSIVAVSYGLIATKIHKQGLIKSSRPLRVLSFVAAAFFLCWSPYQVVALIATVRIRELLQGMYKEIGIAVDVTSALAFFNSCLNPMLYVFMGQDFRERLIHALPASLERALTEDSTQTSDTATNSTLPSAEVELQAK
Chain of COUP transcription factor 2 (P24468 whole entry, the tested form may be a part): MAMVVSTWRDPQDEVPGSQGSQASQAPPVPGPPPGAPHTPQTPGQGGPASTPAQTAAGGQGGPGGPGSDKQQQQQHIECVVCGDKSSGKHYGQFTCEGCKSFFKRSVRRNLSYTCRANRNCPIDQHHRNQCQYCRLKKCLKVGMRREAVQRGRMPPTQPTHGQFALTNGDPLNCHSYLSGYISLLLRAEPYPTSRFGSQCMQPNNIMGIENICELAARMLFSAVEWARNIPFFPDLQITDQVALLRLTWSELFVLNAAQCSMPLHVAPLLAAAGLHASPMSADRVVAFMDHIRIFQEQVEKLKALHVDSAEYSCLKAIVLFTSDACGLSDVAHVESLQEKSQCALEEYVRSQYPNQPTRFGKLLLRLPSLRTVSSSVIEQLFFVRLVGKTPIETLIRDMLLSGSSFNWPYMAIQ
Chain of Disintegrin and metalloproteinase domain-containing protein 17 (P78536 whole entry, the tested form may be a part): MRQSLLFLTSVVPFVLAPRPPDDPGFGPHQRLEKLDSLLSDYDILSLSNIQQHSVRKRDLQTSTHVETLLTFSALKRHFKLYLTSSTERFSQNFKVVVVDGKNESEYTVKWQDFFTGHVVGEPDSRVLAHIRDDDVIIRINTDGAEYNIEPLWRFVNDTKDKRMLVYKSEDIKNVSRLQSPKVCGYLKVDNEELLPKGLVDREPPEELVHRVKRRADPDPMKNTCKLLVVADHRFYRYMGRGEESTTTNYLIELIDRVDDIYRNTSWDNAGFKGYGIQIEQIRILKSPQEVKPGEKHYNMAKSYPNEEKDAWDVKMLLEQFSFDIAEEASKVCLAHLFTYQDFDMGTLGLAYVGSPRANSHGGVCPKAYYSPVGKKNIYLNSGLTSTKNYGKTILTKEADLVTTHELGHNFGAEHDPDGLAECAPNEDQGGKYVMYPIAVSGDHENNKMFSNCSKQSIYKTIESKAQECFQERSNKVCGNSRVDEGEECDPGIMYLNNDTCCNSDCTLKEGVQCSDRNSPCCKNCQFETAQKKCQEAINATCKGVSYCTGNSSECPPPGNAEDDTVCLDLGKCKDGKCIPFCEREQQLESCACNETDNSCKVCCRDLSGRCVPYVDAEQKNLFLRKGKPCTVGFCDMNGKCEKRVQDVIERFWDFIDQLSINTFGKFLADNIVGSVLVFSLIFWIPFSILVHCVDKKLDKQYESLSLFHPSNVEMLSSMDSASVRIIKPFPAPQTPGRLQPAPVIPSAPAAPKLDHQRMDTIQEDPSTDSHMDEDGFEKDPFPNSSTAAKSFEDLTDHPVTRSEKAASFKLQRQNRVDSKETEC
Chain of Protein Tat (P04608 whole entry): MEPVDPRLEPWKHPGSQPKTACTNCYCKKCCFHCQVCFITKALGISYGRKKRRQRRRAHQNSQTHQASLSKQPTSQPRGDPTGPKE

O=C(C1=C(O)C(=O)N(Cc2ccccc2)C1c1ccncc1)c1ccco1 (stereo not given)
active: Ki [1] 13.6 µM

CC(=O)Oc1cccc(N2C(=O)CC(Nc3ccc(N4CCOCC4)cc3)C2=O)c1 (stereo not given)
inconclusive: IC50 [2] 10.5 µM

Cc1ccc(NC(=O)c2[nH]cnc2C(=O)N[C@@H](CCCCNC(=O)OC(C)(C)C)C(=O)OC(C)(C)C)cc1
> 150 µM (not active): EC50 [4]
active: IC50 [3] > 7.72 µM | IC50 [5] 2.47 µM | EC50 [6] 5.58 µM | IC50 [7] 1.09 µM | EC50 [8] 7.99 µM
inactive: IC50 [9] > 69.5 µM

COc1ccc(CN(C)C[C@@H]2OCCCC[C@H](C)Oc3ccc(NC(=O)Nc4ccc(C(F)(F)F)cc4)cc3C(=O)N([C@H](C)CO)C[C@@H]2C)cc1
active: AC50 [10] 20.1 µM | AC50 [11] 14.5 µM | AC50 [12] 44.6 µM | AC50 [13] 12 µM | AC50 [14] 17.5 µM

O=C(Nc1ccc(Oc2ccccc2)cc1)c1csc([C@H]2C[C@H](O)[C@@H](CO)O2)n1
active: AC50 [15] 27.4 µM | AC50 [16] 5.85 µM | IC50 [17] 0.4 µM | IC50 [18] 5.35 µM
inactive: AC50 [19] > 70 µM | EC50 [20] > 29.9 µM

O=C(C1CC1)N1C[C@@H]2N[C@H](C1)[C@@H]2c1ccc(-c2ccncc2)cc1
active: AC50 [21] 0.974 µM | AC50 [22] 5.41 µM | AC50 [23] 12.7 µM | AC50 [24] 21.4 µM | AC50 [25] 2.89 µM | AC50 [26] 13.1 µM | AC50 [28] 12.2 µM | AC50 [29] 12.1 µM | AC50 [10] 2.98 µM | AC50 [30] 4.85 µM | AC50 [31] 0.555 µM | AC50 [32] 0.965 µM | AC50 [12] 13.2 µM | AC50 [33] 24.5 µM | AC50 [34] 0.629 µM
inactive: AC50 [27] > 100 µM

O=C(NCC1CCCO1)c1ccc(NC(=O)C2CCCCC2C(=O)O)cc1 (stereo not given)
inactive: Ki [1] > 66.7 µM

OC[C@H]1[C@@H](c2ccc(-c3cccc(F)c3)cc2)[C@@H]2CN(CCC(F)(F)F)CCCCN12
active: AC50 [21] 0.832 µM | AC50 [35] 28.5 µM | AC50 [27] 12.8 µM | AC50 [31] 0.618 µM | AC50 [32] 1.84 µM | AC50 [34] 1.12 µM

C[C@@H]1CN([C@@H](C)CO)C(=O)Cc2cc(NC(=O)Nc3ccc(F)cc3)ccc2O[C@H]1CN(C)Cc1ccc(Oc2ccccc2)cc1
active: AC50 [35] 15.1 µM | AC50 [32] 1.5 µM
